Source: ChEMBL document CHEMBL1145355, “From selective substrate analogue factor Xa inhibitors to dual inhibitors of thrombin and factor Xa. Part 3” (Bioorg Med Chem Lett, 2007)

How the values were obtained:
Prothrombin = Prothrombin (Homo sapiens, UniProt P00734); test: Inhibition of thrombin
[1] = molecular target: Urokinase-type plasminogen activator (Homo sapiens, UniProt P00749); test: Inhibition of uPA
[2] = Inhibition of Plasmin; parameters: species or system Homo sapiens
Trypsin = Trypsin (Homo sapiens, UniProt P07477+P07478+P35030); test: Inhibition of trypsin; assay type: protein assay
Coagulation factor X = Coagulation factor X (Homo sapiens, UniProt P00742)
[3] = Anticoagulant activity in human plasma by aPTT assay; assay type: functional
Plasma [4] = test: Anticoagulant activity in human plasma by PT assay; assay type: functional
Plasma [5] = test: Anticoagulant activity in human plasma by TT assay; assay type: functional
[6] = Permeability across Caco-2 cell membrane; assay type: ADME, cell-based; conditions: human
[7] = Half life in iv dosed rat; assay type: ADME, organism-based; conditions: in vivo
[8] = Bioavailability in rat at 5 mg/kg po; assay type: ADME, organism-based; conditions: in vivo
Rattus norvegicus = test: Clearance in bile of rat at 5 mg/kg po; assay type: ADME, organism-based; parameters: dose 5 mg/kg, route oral; conditions: in vivo
[9] = % of dose in urine of rat at 5 mg/kg po; assay type: ADME, organism-based; parameters: dose 5 mg/kg, route oral; conditions: read-out: Compound in urine

Coagulation factor X, sequence (P00742 41-179 limits assumed): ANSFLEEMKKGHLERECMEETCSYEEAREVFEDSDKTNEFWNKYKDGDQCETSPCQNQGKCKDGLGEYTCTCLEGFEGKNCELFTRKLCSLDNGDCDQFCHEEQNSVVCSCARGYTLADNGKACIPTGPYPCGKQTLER
Coagulation factor X, sequence (P00742 235-488 limits assumed): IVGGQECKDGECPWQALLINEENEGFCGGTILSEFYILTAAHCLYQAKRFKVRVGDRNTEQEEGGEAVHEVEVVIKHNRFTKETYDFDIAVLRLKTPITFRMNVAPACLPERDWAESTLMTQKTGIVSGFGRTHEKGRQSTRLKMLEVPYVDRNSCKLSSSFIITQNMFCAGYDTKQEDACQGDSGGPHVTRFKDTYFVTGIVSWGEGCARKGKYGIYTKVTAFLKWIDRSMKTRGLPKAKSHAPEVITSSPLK

SMILES | Ki (Prothrombin) [µM] | Ki [1] [µM] | Ki [2] [µM] | Ki (Trypsin) [µM] | Ki (Coagulation factor X) [nM] | IC200 [3] [µM] | IC200 (Plasma [4]) [µM] | IC200 (Plasma [5]) [µM] | Papp [6] [×10⁻⁶ cm/s] | half-life [7] [min] | bioavailability [8] [%] | CL_biliary (Rattus norvegicus) [%] | dose excreted [9] [%]
NCc1ccc(Cl)cc1CNC(=O)[C@H](CO)NC(=O)C(CCc1ccccn1)NS(=O)(=O)Cc1ccccc1 (stereo partly specified) | 0.25 | > 5 | > 5 | > 0.5 |  |  |  |  |  |  |  |  | 
C[C@H](NC(=O)[C@@H](CCc1ccccn1)NS(=O)(=O)Cc1ccccc1)C(=O)NCc1cc(Cl)ccc1CN | 0.024 | > 5 | > 5 | > 0.5 | 0.084 |  |  |  |  |  |  |  | 
NCc1ccc(Cl)cc1CNC(=O)CNC(=O)C(CCc1cccc[n+]1[O-])NS(=O)(=O)Cc1ccc(CC(=O)O)cc1 (stereo unspecified) | 0.93 | > 5 | > 5 | > 0.5 |  | 0.49 | 0.29 | 1.2 |  |  |  |  | 
CCOC(=O)CN[C@H](CCc1cccc[n+]1[O-])C(=O)N1CCC[C@H]1C(=O)NCc1cc(Cl)ccc1CN |  | > 5 | > 5 | > 0.5 | 1.7 | 0.18 |  | 0.1 |  |  |  |  | 
NCc1ccc(Cl)cc1CNC(=O)[C@@H]1CCCN1C(=O)[C@@H](CCc1ccccn1)NCC(=O)O |  | > 5 | > 5 | > 0.5 |  | 0.16 | 0.35 | 0.03 | 5 |  |  |  | 
NCc1ccc(Cl)cc1CNC(=O)[C@H](CO)NC(=O)[C@@H](CCc1cccc[n+]1[O-])NS(=O)(=O)Cc1ccccc1 |  | > 5 | > 5 | > 0.5 |  |  |  |  |  |  |  |  | 
NCc1ccc(Cl)cc1CNC(=O)[C@@H]1CCCN1C(=O)[C@@H](CCc1cccc[n+]1[O-])NS(=O)(=O)Cc1ccccc1 | 0.00056 | > 5 | > 5 | 0.019 |  |  |  |  |  |  |  |  | 
CCOC(=O)CN[C@H](CCc1ccc(O)cc1)C(=O)N1CCC[C@H]1C(=O)NCc1cc(Cl)ccc1CN | 0.0036 | > 5 | > 5 | > 0.5 | 17 | 0.58 | 0.85 | 0.23 | 8.9 |  |  |  | 
NCc1ccc(Cl)cc1CNC(=O)[C@@H]1CCCN1C(=O)[C@@H](CCc1cccc[n+]1[O-])NS(=O)(=O)CC(=O)O | 0.0077 | > 5 | > 5 | 0.061 |  | 0.15 |  | 0.11 |  |  |  |  | 
O=C(CNC(=O)C(CCc1cccc[n+]1[O-])NS(=O)(=O)Cc1ccccc1)NCc1ccc(Cl)s1 (stereo unspecified) | 190 | > 5 | > 5 | > 0.5 | 53 |  |  |  |  |  |  |  | 
O=C(CNC(=O)C(CCc1cccc[n+]1[O-])NS(=O)(=O)Cc1ccccc1)NCc1cc(Cl)ccc1Cl (stereo unspecified) | 7.6 | > 5 | > 5 | > 0.5 | 2.55 |  |  |  |  |  |  |  | 
NCc1ccc(Cl)cc1CNC(=O)[C@H](CCC(=O)O)NC(=O)C(CCc1cccc[n+]1[O-])NS(=O)(=O)Cc1ccccc1 (stereo partly specified) | 20 | > 5 | > 5 | > 0.5 |  |  |  |  |  |  |  |  | 
NCc1ccc(Cl)cc1CNC(=O)CNC(=O)C(CCc1cccc[n+]1[O-])NC(=O)CC(=O)O (stereo unspecified) | 140 | > 5 | > 5 | > 0.5 |  |  |  |  |  |  |  |  | 
NCc1ccc(Cl)cc1CNC(=O)CNC(=O)C(CCc1cccc[n+]1[O-])NCC(=O)O (stereo unspecified) | 125 | > 5 | > 5 | > 0.5 |  | 6 | 3.3 | >100 |  |  |  |  | 
NCc1ccc(Cl)cc1CNC(=O)CNC(=O)[C@@H](CCc1cccc[n+]1[O-])NS(=O)(=O)Cc1ccccc1 | 0.17 | 150 | 930 | 6.5 |  | 0.16 |  | 0.5 |  | < 20 | < 5 | 75 | 15
NCc1ccccc1CNC(=O)CNC(=O)C(CCc1cccc[n+]1[O-])NS(=O)(=O)Cc1ccccc1 (stereo unspecified) | 40 | > 5 | > 5 | > 0.5 | 32 |  |  |  |  |  |  |  | 
N=C(N)c1ccc(CNC(=O)CNC(=O)[C@@H](CCc2cccc[n+]2[O-])NS(=O)(=O)Cc2ccccc2)cc1 | 2.7 |  |  | 0.0063 | 0.32 |  |  |  |  |  |  |  | 
C[C@H](NC(=O)[C@@H](CCc1cccc[n+]1[O-])NS(=O)(=O)Cc1ccccc1)C(=O)NCc1cc(Cl)ccc1CN | 0.17 | > 5 | > 5 | > 0.5 |  |  |  |  |  |  |  |  | 

SMILES | Ki (Prothrombin) [µM] | Ki [1] [µM] | Ki [2] [µM] | Ki (Trypsin) [µM] | Ki (Coagulation factor X) [nM] | IC200 [3] [µM] | IC200 (Plasma [4]) [µM] | IC200 (Plasma [5]) [µM] | Papp [6] [×10⁻⁶ cm/s] | half-life [7] [min] | bioavailability [8] [%] | CL_biliary (Rattus norvegicus) [%] | dose excreted [9] [%]
COC(=O)C(=O)NC(CCc1cccc[n+]1[O-])C(=O)N1CCC[C@H]1C(=O)NCc1cc(Cl)ccc1CN (stereo partly specified) | 0.019 | > 5 | > 5 | > 0.5 | 0.87 |  |  |  |  |  |  |  | 
CCCCCCOC(=O)CN[C@H](CCc1cccc[n+]1[O-])C(=O)N1CCC[C@H]1C(=O)NCc1cc(Cl)ccc1CN | 0.0078 | > 5 | > 5 | > 0.5 |  |  |  |  |  |  |  |  | 
Nc1ccc(CNC(=O)CNC(=O)C(CCc2cccc[n+]2[O-])NS(=O)(=O)Cc2ccccc2)cn1 (stereo unspecified) | 88 | > 5 | > 5 | > 0.5 | 21 |  |  |  |  |  |  |  | 
NCc1ccc(Cl)cc1CNC(=O)CNC(=O)C(CCc1cccc[n+]1[O-])NS(=O)(=O)CC(=O)O (stereo unspecified) | 8.3 | > 5 | > 5 | > 0.5 |  | 0.89 |  | 57 |  |  |  |  | 
CC(C)OC(=O)CS(=O)(=O)NC(CCc1cccc[n+]1[O-])C(=O)NCC(=O)NCc1cc(Cl)ccc1CN (stereo unspecified) | 0.53 | > 5 | > 5 | > 0.5 | 0.76 |  |  |  |  |  |  |  | 
NCc1ccc(Cl)cc1CNC(=O)[C@@H]1CCCN1C(=O)[C@@H](CCc1ccc(O)cc1)NCC(=O)O | 0.0032 | > 5 | > 5 | > 0.5 |  | 0.47 | 0.73 | 0.15 |  |  |  |  | 
CCCS(=O)(=O)NC(CCc1cccc[n+]1[O-])C(=O)NCC(=O)NCc1cc(Cl)ccc1CN (stereo unspecified) | 2.7 | > 5 | > 5 | > 0.5 |  | 0.45 |  | 6.5 |  |  |  |  | 
COC(=O)C(=O)NC(CCc1cccc[n+]1[O-])C(=O)NCC(=O)NCc1cc(Cl)ccc1CN (stereo unspecified) | 6.5 | > 5 | > 5 | > 0.5 | 4.9 |  |  |  |  |  |  |  | 
O=C(CNC(=O)[C@@H](CCc1cccc[n+]1[O-])NS(=O)(=O)Cc1ccccc1)NCc1cccc(Cl)c1 | 10 | > 5 | > 5 | > 0.5 | 3.3 |  |  |  |  |  |  |  | 
COC(=O)Cc1ccc(CS(=O)(=O)NC(CCc2cccc[n+]2[O-])C(=O)NCC(=O)NCc2cc(Cl)ccc2CN)cc1 (stereo unspecified) | 1.01 | > 5 | > 5 | > 0.5 |  |  |  |  |  |  |  |  | 
NCc1ccc(Cl)cc1CNC(=O)[C@@H]1CCCN1C(=O)[C@@H](CCc1cccc[n+]1[O-])NCC(=O)OC1CCCCC1 | 0.009 | > 5 | > 5 | > 0.5 |  |  |  |  |  |  |  |  | 
NCc1ccc(Cl)cc1CNC(=O)[C@@H]1CCCN1C(=O)[C@@H](CCc1cccc[n+]1[O-])NCC(=O)O | 0.0173 | > 5 | > 5 | > 0.5 | 0.94 | 0.32 |  | 0.17 |  |  |  |  | 
O=C(CNC(=O)[C@@H](CCc1cccc[n+]1[O-])NS(=O)(=O)Cc1ccccc1)NCCc1ccncc1 | > 1000 | > 5 | > 5 | > 0.5 | 3900 |  |  |  |  |  |  |  | 
CCOC(=O)CC(=O)NC(CCc1cccc[n+]1[O-])C(=O)NCC(=O)NCc1cc(Cl)ccc1CN (stereo unspecified) | 40 | > 5 | > 5 | > 0.5 | 200 |  |  |  |  |  |  |  | 
NCc1ccc(Cl)cc1CNC(=O)CNC(=O)C(CCc1cccc[n+]1[O-])NC(=O)C(=O)O (stereo unspecified) | 18 | > 5 | > 5 | > 0.5 | 4.9 | 1.85 | 0.13 | 15 |  | 30 |  |  | 
O=C(CNC(=O)C(CCc1cccc[n+]1[O-])NS(=O)(=O)Cc1ccccc1)NCc1cccs1 (stereo unspecified) | 140 | > 5 | > 5 | > 0.5 | 52 |  |  |  |  |  |  |  | 
CCOC(=O)CN[C@H](CCc1ccccn1)C(=O)N1CCC[C@H]1C(=O)NCc1cc(Cl)ccc1CN | 0.0038 | > 5 | > 5 | > 0.5 |  | 0.23 | 0.6 | 0.09 | 2.4 |  |  |  | 
COC(=O)C(=O)N[C@H](CCc1cccc[n+]1[O-])C(=O)N1CCC[C@H]1C(=O)NCc1cc(Cl)ccc1CN | 0.0177 | > 5 | > 5 | > 0.5 | 0.63 | 0.3 | 0.79 | 0.13 |  |  |  |  | 
